Data on three compounds can be found in publication PMC10421158, “In Vitro and In Silico Analysis of the Anticancer Effects of Eurycomanone and Eurycomalactone from Eurycoma longifolia” (Plants, 2023).

Holding throughout (format): cell-based
Experiment [1] relates to ovarian (A2780) cancer cell line. In words: Sulforhodamine B (SRB) cell viability assay, A2780. To be noted: read-out: IC50 A2780. The source says:
(§1) The cancer cell lines used for this study were ovarian cancer (A2780), cervical cancer (HeLa) and colorectal cancer (HT29) as well as normal cardiomyocyte (H9C2) and liver (WRL-68) cell lines. All cell lines were purchased from American Type Culture Collections except A2780, which were purchased from the European Collection of Authenticated Cell Cultures. These cells were subcultured in Dulbecco’s Modified Eagle’s medium (Sigma-Aldrich, St. Louis, MO, USA) and supplemented with 10% fetal bovine serum (Sigma, USA), 1% penicillin–streptomycin (Sigma, USA), 1% amphotericin B (Sigma, USA) and 1% gentamicin (Sigma, USA). The cells were seeded in each well of 96 well plates and incubated in a humidified incubator at 37 °C and 5% carbon dioxide in air for 24 h. Each cell line was then treated with eurycomanone and eurycomalactone at five different concentrations (0.08, 0.4, 2, 10 and 50 µM) in triplicate. Cisplatin and methotrexate (Sigma, USA), known chemo-drugs, were also treated on these cell lines at five different concentrations (0.08, 0.4, 2, 10, 50 µM for cisplatin, 0.0008, 0.004, 0.02, 0.1, 0.5 µM for methotrexate) for the comparative studies. The treated cells were then incubated in the same incubator with the mentioned conditions for 72 h. The experiment was repeated at least three times.
(§2) Briefly, 50 μL of ice cold tricholoroacetic acid (TCA) was added to each well and allowed to stand for 30 min at room temperature, followed by rinsing each well with tap water. Then, 100 μL of 0.4% SRB was added to each well to stain living cells for 30 min followed by a rinse with 1% acetic acid. Finally, 100 μL of Tris buffer was added to each well and the optical density (OD) of the treated and nontreated cells were read at 492 nm with a Magellan V.4 microtiter plate reader (Tecan, Salzburg, Austria). The percentage of cell viability was calculated based on (OD492nm of the treated cells/OD492nm of the nontreated cells) × 100. The IC50 values were determined from the dose–response curve of percentage of cell viability versus the concentration of the compounds (μM). Cells viability assay for each treatment was performed in triplicate in at least three independent experiments, and the IC50 values are given as the mean ± SEM.

Experiment [2] concerns cervical (HeLa) cancer cell line. In words: Sulforhodamine B (SRB) cell viability assay, HeLa. The settings on record: 72 h, read-out: IC50 HeLa.
Text: as §1
as §2, with “Sulforhodamine B (SRB) assay had been performed after the treated cells were incubated for 72 h. Briefly,” for “Briefly,”

The subject of experiment [3] is colorectal (HT29) cancer cell line. In words: Sulforhodamine B (SRB) cell viability assay, HT-29. To be noted: read-out: IC50 HT-29.
Text: as §1
as §2, with “Sulforhodamine B (SRB) assay had been performed after the treated cells were incubated for 72 h. Briefly,” for “Briefly,”

For experiment [4], the system named is cardiomyocyte (H9C2) normal cell line. Briefly: Sulforhodamine B (SRB) cell viability assay, H9C2. The settings on record: read-out: IC50 H9C2.
Text: as §1
as §2, with “Sulforhodamine B (SRB) assay had been performed after the treated cells were incubated for 72 h. Briefly,” for “Briefly,”

Experiment [5] concerns liver (WRL-68) normal cell line. In words: Sulforhodamine B (SRB) cell viability assay, WRL-68. The settings on record: read-out: IC50 WRL-68.
Text: as §1
as §2, with “Sulforhodamine B (SRB) assay had been performed after the treated cells were incubated for 72 h. Briefly,” for “Briefly,”

The subject of experiment [6] is ovarian (A2780), cervical (HeLa) and colorectal (HT29) cancer cells. Briefly: SRB assay, range over the three cancer cell lines. To be noted: 72 h, read-out: range of IC50 values in cancer cell lines.
Text: as §1
as §2, with “Cells viability assay for each treatment was performed in triplicate in at least three independent experiments, and the IC50 values are given as the mean ± SEM.” left out

The subject of another experiment is A2780 cells. In words: Apoptotic Hoechst 33342 assay, A2780. The procedure:
(§3) A2780, HT-29 and HeLa cancer cell lines were chosen for evaluating the apoptotic effects of eurycomanone and eurycomalactone. The morphological changes of cells undergoing apoptosis were visualised under a fluoresecence microscope after performing the Hoechst 33342 assay. Briefly, 10 × 10^4 cells were seeded for 500 µL/well of four Labtek® Chamber Slides (Thermo Fisher Scientific, Waltham, MA, USA) and incubated in 5% carbon dioxide in air for 24 h for the cells’ attachment. The cells were treated with concentrations of IC50/5, IC50 and IC50 × 5 values of eurycomanone and eurycomalactone in different wells and further incubated for 6, 24 and 48 h, respectively. Nontreated cells were also included in the experimental design, which acted as a negative control in this study. Following this, the media from each well were discarded and cells were fixed with 4% (w/v) paraformaldehyde for 30 min. The cells were then washed with cold phosphate buffer solution (PBS) prior to staining using Hoechst 33342, according to the method of [26]. Quantitative assessment of apoptotic cells were determined by counting apoptotic nuclei from five randomly chosen areas corroborating visual impression based on the morphology shown in Figure 3 and Figure 4. The apoptotic index (number of apoptotic nuclei per total nuclei × 100) was expressed as a percentage of the mean ± S.E.M and analysed using ANOVA followed by Tukey’s multiple comparison test.

A further experiment has as its system HT-29 cells. Briefly: Apoptotic Hoechst 33342 assay, HT-29. The procedure: as §3
In a further experiment the test system is HeLa cells. Briefly: Apoptotic Hoechst 33342 assay, HeLa. The procedure:
as §3

Where [7] appears, read: SRB, 72 h, normal cell line, mean ± SEM (n = 9).

Structures are written as SMILES. Read-outs that look alike come from different tables or passages of the source.

The IC50 is the midpoint of a concentration-inhibition curve. Consider `CC1=CC(=O)[C@@H](O)[C@@]2(C)[C@H]1CC(=O)[C@@]1(C)[C@H]3C(=O)O[C@H]([C@@H]3C)[C@H](O)[C@@H]12` [Eurycomalactone], for which the IC50 is 2460 ± 81 nM in experiment [1] (Homo sapiens, A2780, 72 h); 1600 ± 120 nM in [2] (Homo sapiens, HeLa); 2210 ± 49 nM in experiment [3] (Homo sapiens, HT-29, 72 h); 7000 ± 430 nM in experiment [4] (Rattus norvegicus, H9c2, 72 h); 2710 ± 42 nM in [5] (Homo sapiens, WRL68, 72 h); 1600 to 2460 nM in experiment [6]. Further, the Apoptotic index with A2780 cells (A2780, IC50, 6 h) is 4.26 ± 0.64 ^b/x %; in the experiment with A2780 cells (A2780, IC50, 24 h), 6.29 ± 0.21 ^ab/y %; in the experiment on A2780 cells (A2780, IC50, 48 h), 7.93 ± 2.28 ^b/xz %; with A2780 cells (A2780, IC50/5, 6 h) it was 3.84 ± 0.10 ^a/x %; in the experiment on A2780 cells (A2780, IC50/5, 24 h), 4.12 ± 0.16 ^a/y %; in the experiment on A2780 cells (A2780, IC50/5, 48 h), 5.16 ± 0.065 ^a/xz,yz %. The Apoptotic index in the experiment on A2780 cells (A2780, IC50 × 5, 6 h) was 15.81 ± 0.38 ^ac,bc/x %; in the experiment with A2780 cells (A2780, IC50 × 5, 24 h), “Cells died and completely detached ^ac,bc/xy”; in the experiment with A2780 cells (A2780, IC50 × 5, 48 h) it was “Cells died and completely detached ^ac,bc/xz”; in the experiment on HT-29 cells (HT-29, IC50, 6 h), 4.51 ± 0.23 ^b/x %; with HT-29 cells (HT-29, IC50, 24 h), 12.41 ± 0.77 ^ab/xy %; in the experiment on HT-29 cells (HT-29, IC50, 48 h), 14.28 ± 0.84 ^ab/xz,yz %. Further, the Apoptotic index in the experiment with HT-29 cells (HT-29, IC50/5, 6 h) is recorded as 3.79 ± 0.45 ^a/x %; with HT-29 cells (HT-29, IC50/5, 24 h) it was 7.71 ± 0.51 ^a/xy %; in the experiment on HT-29 cells (HT-29, IC50/5, 48 h), 8.86 ± 0.68 ^a/xz %; in the experiment with HT-29 cells (HT-29, IC50 × 5, 6 h), 6.52 ± 1.22 ^ac,bc/x %; in the experiment on HT-29 cells (HT-29, IC50 × 5, 24 h), 20.21 ± 1.52 ^ac,bc/xy %; with HT-29 cells (HT-29, IC50 × 5, 48 h), 100.00 ± 0.00 ^ac,bc/xz,yz %. Besides, the Apoptotic index is 17.67 ± 0.77 ^ab/x % in the experiment on HeLa cells (IC50, 6 h); 32.00 ± 1.57 ^ab/xy % in the experiment with HeLa cells (IC50, 24 h); 36.71 ± 1.19 ^ab/xz,yz % with HeLa cells (IC50, 48 h); 5.45 ± 0.23 ^a/x % in the experiment with HeLa cells (IC50/5, 6 h); 8.94 ± 0.21 ^a/xy % with HeLa cells (IC50/5, 24 h); 14.78 ± 0.12 ^a/xz,yz % in the experiment on HeLa cells (IC50/5, 48 h). Also, the Apoptotic index in the experiment with HeLa cells (IC50 × 5, 6 h) was 31.87 ± 2.19 ^ac,bc/x %; with HeLa cells (IC50 × 5, 24 h), 62.20 ± 1.35 ^ac,bc/xy %; in the experiment on HeLa cells (IC50 × 5, 48 h), 100.00 ± 0.00 ^ac,bc/xz,yz %.
Turning to `N.N.[Cl][Pt][Cl]` [Cisplatin, reference compound], the IC50 in [1] (SRB, 72 h, mean ± SEM (n = 9)) amounted to 1770 ± 18 nM; in experiment [2] (SRB, mean ± SEM (n = 9)) it was 1540 ± 120 nM; in [3] (SRB, 72 h, mean ± SEM (n = 9)), 1380 ± 37 nM; in experiment [4] (setting [7]), 14100 ± 1140 nM; in experiment [5] (setting [7]) it was 1130 ± 98 nM.
Turning to `CN(Cc1cnc2nc(N)nc(N)c2n1)c1ccc(C(=O)N[C@@H](CCC(=O)O)C(=O)O)cc1` [Methotrexate, reference compound], the IC50 in [1] (Homo sapiens, A2780, SRB, 72 h, mean ± SEM (n = 9)) is 16 ± 0.5 nM; in [2] (Homo sapiens, HeLa, SRB, mean ± SEM (n = 9)) it was 94 ± 4.3 nM; in experiment [3] (Homo sapiens, HT-29, SRB, 72 h, mean ± SEM (n = 9)) it was 59 ± 1 nM; in experiment [4] (Rattus norvegicus, H9c2, SRB, 72 h, normal cell line, mean ± SEM (n = 9)), greater than 50000 nM; in experiment [5] (Homo sapiens, WRL68, SRB, 72 h, normal cell line, mean ± SEM (n = 9)), 15 ± 0.41 nM; in experiment [6] (range over A2780, HeLa, HT29, SRB) it was 16 to 94 nM.
